This is an account of results in patent US20240299401A1, “NOVEL REDOX-BASED THERAPEUTIC APPROACH FOR TREATMENT OF CANCER” (THE PENN STATE RESEARCH FOUNDATION, priority 2020, published 2024).

Data set [1] deals with H661. As to the kind of experiment: WST-1 cytotoxicity, H661. In kind it is cell-based, human. To be noted: H661 (Lung), compound alone, 24 h, '>' = dose approximation, read-out: IC50 values. The method, then: (§1) Two different cytotoxicity/proliferation kit was used in this study i.e., WST-1 proliferation assay kit (Roche, Indianapolis, IN, USA; Cat #28620000) and Cell-titer Glo-luminescent cell viability assay (Promega, WI, USA; Cat #0000348721). Majority of the cell proliferation/cytotoxicity experiments were performed with WST-1 assay. Briefly, cells were seeded at the indicated density for 24 h in 96 well plate, media was replaced, and subsequently treated with the test compounds at different doses. […] Cell titer Glo-assay was additionally performed in certain cases to validate the results from WST-1 assay as outlined above following manufacturer's instructions and luminescence was measured using a FLx100 Luminometer (CLARIOSTAR®, Ortenbery, Germany). […] Other proliferation/cytotoxicity assays were also carried out i.e., Quant™-iT PicoGreen ds DNA assay kit (Thermo Scientific, Rockwood, TN, USA, P7589) following manufacturer's instructions, Trypan blue (Sigma, Ayrshire, UK, T8154) and acid phosphatase assay for validation of cytotoxicity/proliferation data from other assays.
In general terms: Tetrazolium assays rely on reduction of a dye to a coloured formazan, in cell work by metabolically active cells.

Data set [2] concerns A549. Description: WST-1 cytotoxicity, A549. In kind it is cell-based, human. As to conditions: A549 (Lung), compound alone, 24 h, '>' = dose approximation, read-out: IC50 values. The method, then:
as §1

Data set [3] has as its system MCF-7. As to the kind of experiment: WST-1 cytotoxicity, MCF-7. Type of data set: cell-based, human. To be noted: MCF7 (Breast); compound alone; 24 h; '>' = dose approximation; read-out: IC50 values. The procedure:
as §1

Data set [4] deals with HL60. Description: WST-1 cytotoxicity and synergy analysis, HL60. In kind it is cell-based, human. To be noted: HL60 (Leukemia), compound alone, 24 h, '>' = dose approximation, read-out: IC50 values. The method, then:
as §1

Data set [5] deals with SLC7A11. Description: SLC7A11 mRNA expression (qRT-PCR). As to conditions: HL60 and H1299 cells. A general note: Quantitative PCR measures a nucleic acid by following its amplification.
Data set [6] relates to H1299. Description: WST-1 cytotoxicity, H1299. Type of data set: cell-based, human. As to conditions: H1299 (Lung); compound alone; 24 h; '>' = dose approximation; read-out: IC50 values. The procedure:
as §1

Data set [7] concerns NB4. Description: WST-1 cytotoxicity, NB4. Type of data set: cell-based, human. To be noted: NB4 (Leukemia), compound alone, 24 h, '>' = dose approximation, read-out: IC50 values. The procedure: as §1
Data set [8] relates to extracellular reduced thiols. As to the kind of experiment: Extracellular thiols measurement (DTDP method). Type of data set: cell-based, human. As to conditions: for extracellular reduced thiols levels: MCF7 cells; for thiols efflux: A549 and H1299, 24 h, Erastin 5 μM, MSG 50 mM, Sorafenib 2.5 μM, trans-2,4-PDC 100 μM. The method, then: Cell culture media was collected at specified time points after incubation with the respective compounds as described in the respective figure legends and extracellular total thiols were measured using the DTDP method 19. The protocol was adjusted to 96-well plate format. […] Absorbance was measured at 324 nm in a spectrophotometer (PowerWave HT, BioTek, VT, USA). The assay mixture with fresh media was used as a blank.

Data set [9] deals with ATF4. To be noted: HEK293 ATF4 reporter; tunicamycin 2.5 μM, other compounds 5.0 μM; 24 h.
Procedure: The next day, media was replaced with respective compounds as described. Twenty-four hours post-treatment, media were aspirated and replaced with 1:1 ratio of PBS:Bright Glo luciferase reagent mix (Promega, Madison, WI, USA) according to manufacturer's protocol. Cells were incubated in the dark for 10 min at room temperature with gentle rocking and luciferase activity was measured using an FLx100 Luminometer (CLARIOSTAR®, Ortenbery, Germany). In parallel, the same setup was made, and the cells were used to monitor the proliferation/toxicity of individual exposed compounds. Luciferase signal is normalized to the to the proliferation/toxicity of the individual compounds. Bortezomib (50 nM, Sigma-Aldrich, St. Louis, MO, USA), a known agonist for ATF4, was used as a positive control.
The next day, old media was replaced with media containing the respective compounds as described in the figure legends. […] Cells were incubated in the dark for 10 min at room temperature with gentle rocking and luciferase activity was measured using an FLx100 Luminometer (CLARIOSTAR®, Ortenbery, Germany). […] In parallel, the same setup was made, and the cells were used to monitor the proliferation/toxicity of individual compounds. Luciferase signal was normalized to correct for the proliferation/toxicity of the individual compounds. […] For ATF4 reporter assay, Hek293T reporter cells 20 were cultured similarly as indicated for MCF7 cells, except for seeding density was set at 300 cells/mm2. All other experimental set up was similar.
Data set [10] relates to 23 different human cell lines of multiple cancer origins. As to the kind of experiment: Cytotoxicity across the cancer cell line panel (summary statements). Type of data set: cell-based. The procedure: as §1

Structures can show the parent of a compound that is named as a salt. Where two headings read alike, the source gives them in different places.

For orientation: IC50 means the concentration that gives 50% inhibition. Consider `CC(C)(C)c1cc(O)ccc1O` [Tert-butyl hydroxyquinone, reference compound], for which the IC50 in [1] is greater than 40 µM; in [2] it was greater than 20 µM; in data set [3] it was greater than 60 µM; in data set [4], greater than 25 µM; in data set [6], greater than 100 µM; in data set [7], greater than 20 µM. The SLC7A11 expression result in data set [5] is reported as “Increased SLC7A11 expression”. Also, the “extracellular reduced thiols levels” value in data set [8] is listed as “induced”. In addition, in data set [9], the ATF4 activity entry is on record as “not effective”.

On to `c1ccc(C[Se][Se]Cc2ccccc2)cc1` [DBDS, dibenzyl diselenide], for which the extracellular reduced thiols entry in data set [8] (HEK293 ATF4 reporter cells, 5.0 μM) was “increased levels of extracellular reduced thiols”; in data set [8] (all the tested cell lines, H1299 and HL60), “highly effective”.

For the compound `N[C@@H](CCC(=O)O)C(=O)[O-].[Na+]` [mono-sodium glutamate], in data set [8], the thiols efflux result is “inhibited thiols efflux”.

`c1ccc(SSc2ccccc2)cc1` [Phenyl disulfide]: the IC50 is greater than 20 µM in [1] (Homo sapiens, NCI-H661); greater than 40 µM in data set [2] (Homo sapiens); greater than 40 µM in data set [4] (Homo sapiens, HL-60); greater than 20 µM in data set [7] (Homo sapiens, NB-4).

As to `O=C(O)[C@H]1CN[C@H](C(=O)O)C1` (relative stereo) [trans-2,4-PDC], the thiols efflux entry in data set [8] is on record as “no effect”.

With `c1ccc([Te][Te]c2ccccc2)cc1` [diphenyl ditelluride], the ATF4 activity result in data set [9] is reported as “Increased ATF4 activity”.

Take Tunicamycin [reference compound]: the IC50 in data set [3] was greater than 5 µM; in [6] it was greater than 20 µM. The SLC7A11 expression result in data set [5] is recorded as “Increased SLC7A11 expression”. Also, the ATF4 activity result in data set [9] was “Increased ATF4 activity”.

On to `COC(=O)/C=C/C(=O)OC` [Dimethyl fumarate, reference compound], for which the IC50 in data set [1] (Homo sapiens, NCI-H661) is greater than 40 µM; in data set [2] (Homo sapiens) it was greater than 40 µM; in data set [4] (Homo sapiens, HL-60) it was greater than 40 µM; in data set [7] (Homo sapiens, NB-4) it was greater than 40 µM.

With `COc1cc(/C=C/C(=O)CC(=O)/C=C/c2ccc(O)c(OC)c2)ccc1O` [Curcumin, reference compound], the IC50 was greater than 20 µM in data set [1] (Homo sapiens, NCI-H661); greater than 20 µM in data set [2] (Homo sapiens); greater than 20 µM in data set [4] (Homo sapiens, HL-60); greater than 20 µM in [7] (Homo sapiens, NB-4).

Regarding `CNC(=O)c1cc(Oc2ccc(NC(=O)Nc3ccc(Cl)c(C(F)(F)F)c3)cc2)ccn1` [sorafenib], in data set [8], the thiols efflux result is recorded as “no effect”.

Take `CCCCS(=N)(=O)CCC(N)C(=O)O` (stereo not shown) [BSO]: the “impact on the DPDS-induced increase in thiols efflux” value in data set [8] (MCF7, co-exposure, time-course) is “little or no impact”.

For `C[S+]([O-])CCCCN=C=S` (stereo not shown) [Sulforaphen, reference compound], the IC50 in [1] (Homo sapiens, NCI-H661) is greater than 10 µM; in [2] (Homo sapiens), greater than 10 µM; in data set [4] (Homo sapiens, HL-60) it was greater than 20 µM; in [7] (Homo sapiens, NB-4), greater than 20 µM. For the same compound, the “extracellular reduced thiols levels” value in [8] is given as “induced”. Further, in [9], the ATF4 activity entry is given as “not effective”.

`O=C(O)c1cc(/N=N/c2ccc(S(=O)(=O)Nc3ccccn3)cc2)ccc1O` [Sulfasalazine]: the “effect of co-treatment on cytotoxicity of sodium selenite and selenocystine” value in data set [10] (chemical inhibition of cystine transport) was “inhibition of cytotoxicity”.

Consider `CCOc1ccccc1-n1c(C(C)N2CCN(C(=O)COc3ccc(Cl)cc3)CC2)nc2ccccc2c1=O` (stereo not shown) [Erastin], for which the “effect of co-treatment on cytotoxicity of sodium selenite and selenocystine” value in [10] was “inhibition of cytotoxicity”.
